Laboratory results as given in US11492385B2, “Long-acting co-agonists of the glucagon and GLP-1 receptors” (Merck Sharp & Dohme Corp., priority 2015, dated 2022).
Like-named read-outs stand apart in the source and are kept apart here. Starred links: 1 amine or outer side, 2 acyl side, 3 side chain; linkers in the order of their positions; H or OH if unused. Non-standard residues stand in square brackets, D forms with d. Residues, ends and D or L forms follow the SMILES beside them. Groups on a side chain read outwards from the residue. *: point of attachment. Phe(4-CH2NH2) = NCc1ccc(C[C@H](N)C(=O)O)cc1; C18 diacid = O=C(O)CCCCCCCCCCCCCCCCC(=O)*; C17 diacid = O=C(O)CCCCCCCCCCCCCCCC(=O)*; αMeW = C[C@](N)(Cc1c[nH]c2ccccc12)C(=O)O; C16 diacid = O=C(O)CCCCCCCCCCCCCCC(=O)*; γGlu = O=C(O)[C@H](CCC(=O)[*:2])N[*:1]; Met(O2) = CS(=O)(=O)CC[C@H](N)C(=O)O; Palmitoyl = CCCCCCCCCCCCCCCC(=O)*; AEEA = NCCOCCOCC(=O)O; Aib = CC(C)(N)C(=O)O

How the values were obtained:
human GCGR = biological target: T1, human GCGR (Homo sapiens, UniProt P47871); experiment: cAMP activity assay, cells expressing human GCGR; format: cell-based; details: for EC50: cAMP production, cells expressing human GCGR, assay buffer with or without 20% human serum (not stated which); for hGCGR/hGLP1R (hTone): ratio of human GCGR EC50 to human GLP1R EC50
T1 construct: expressed in transfected cells; kept under Blasticidin and Hygromycin selection
T1 sequence (P47871 26-477): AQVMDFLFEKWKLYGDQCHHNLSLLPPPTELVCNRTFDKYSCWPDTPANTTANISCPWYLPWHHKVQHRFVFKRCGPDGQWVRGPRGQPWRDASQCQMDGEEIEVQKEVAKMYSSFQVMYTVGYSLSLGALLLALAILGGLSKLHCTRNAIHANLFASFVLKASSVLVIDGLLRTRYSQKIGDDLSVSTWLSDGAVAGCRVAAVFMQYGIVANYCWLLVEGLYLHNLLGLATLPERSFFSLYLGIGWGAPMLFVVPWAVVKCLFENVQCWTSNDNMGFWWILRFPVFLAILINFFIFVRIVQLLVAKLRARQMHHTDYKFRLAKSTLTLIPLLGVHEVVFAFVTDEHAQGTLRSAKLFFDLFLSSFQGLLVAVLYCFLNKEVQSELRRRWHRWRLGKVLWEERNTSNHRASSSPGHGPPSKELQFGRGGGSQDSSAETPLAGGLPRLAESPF
Method: (§1) Activity of the peptides at the Glucagon receptor (GCGR) and GLP-1 receptor (GLP1R) was measured in a cAMP activity assay. Peptides were dissolved in 100% DMSO and serially diluted to generate 10 point titrations. The peptide solutions were then transferred into 384-well assay plates (150 nL/well). […] Production of cAMP was determined using […] kits (DiscoverX) following manufacturer protocol. The plates were incubated for overnight at room temperature in the dark. Luminescence was measured using an EnVision Multilabel plate reader (Perkin Elmer). Native GLP-1 and Glucagon (Bachem) are used as control peptides. EC50 values were calculated using uses a 4 parameter logistic fit based on the Levenberg-Marquardt algorithm.

human GLP1R = biological target: T2, human GLP1R (Homo sapiens, UniProt P43220); experiment: cAMP activity assay, cells expressing human GLP1R; format: cell-based; details: cAMP production, assay buffer with or without 20% human serum (not stated which)
T2 construct: expressed in transfected cells; kept under Blasticidin and Hygromycin selection
T2 sequence (P43220 24-463): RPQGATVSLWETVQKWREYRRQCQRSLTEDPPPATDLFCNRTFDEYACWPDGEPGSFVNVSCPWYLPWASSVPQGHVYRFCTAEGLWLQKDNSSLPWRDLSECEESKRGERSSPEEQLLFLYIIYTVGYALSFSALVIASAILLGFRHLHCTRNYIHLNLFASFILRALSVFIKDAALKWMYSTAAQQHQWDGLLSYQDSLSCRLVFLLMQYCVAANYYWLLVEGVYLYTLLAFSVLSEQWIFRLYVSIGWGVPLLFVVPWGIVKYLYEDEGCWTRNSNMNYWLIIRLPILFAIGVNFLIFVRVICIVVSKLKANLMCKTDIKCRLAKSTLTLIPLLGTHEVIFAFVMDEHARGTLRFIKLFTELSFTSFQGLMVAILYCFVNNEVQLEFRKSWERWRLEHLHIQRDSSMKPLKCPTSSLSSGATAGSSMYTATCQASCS
Method: as §1

Compound: CC(C)C[C@H](NC(=O)[C@H](CC(C)C)NC(=O)[C@H](Cc1c[nH]c2ccccc12)NC(=O)[C@H](CCC(N)=O)NC(=O)[C@@H](NC(=O)[C@H](Cc1ccccc1)NC(=O)[C@H](CCCCNC(=O)COCCOCCNC(=O)COCCOCCNC(=O)CC[C@H](NC(=O)CCCCCCCCCCCCCCC(=O)O)C(=O)O)NC(=O)[C@H](CCC(N)=O)NC(=O)[C@H](C)NC(=O)[C@H](C)NC(=O)[C@H](CCCNC(=N)N)NC(=O)C(C)(C)NC(=O)[C@H](CC(=O)O)NC(=O)[C@H](CC(C)C)NC(=O)[C@H](Cc1ccc(O)cc1)NC(=O)[C@H](CCCCN)NC(=O)[C@H](CO)NC(=O)[C@H](Cc1ccc(O)cc1)NC(=O)[C@H](CC(=O)O)NC(=O)[C@H](CO)NC(=O)[C@@H](NC(=O)[C@H](Cc1ccccc1)NC(=O)[C@@H](NC(=O)CNC(=O)[C@H](CCC(N)=O)NC(=O)[C@@H](CO)NC(=O)[C@@H](N)Cc1c[nH]cn1)[C@@H](C)O)[C@@H](C)O)C(C)C)C(=O)N[C@@H](C)C(=O)N[C@H](C(=O)N[C@@H](CCCCNC(=O)CC[C@H](N)C(=O)O)C(N)=O)[C@@H](C)O [compound 1] (H-H[dS]QGTFTSDYSKYLD[Aib]RAAQK([AEEA-AEEA-γGlu-C16 diacid])FVQWLLATK(γGlu)-NH2)
- EC50 (human GCGR; read-out: GCGR EC50 human): 160 pM
- hGCGR/hGLP1R (hTone) (human GCGR): 0.09
- EC50 (human GLP1R): 1890 pM

Compound: CC(C)C[C@H](NC(=O)[C@H](Cc1ccc(O)cc1)NC(=O)[C@H](CCCCN)NC(=O)[C@H](CO)NC(=O)[C@H](Cc1ccc(O)cc1)NC(=O)[C@H](CC(=O)O)NC(=O)[C@H](CO)NC(=O)[C@@H](NC(=O)[C@H](Cc1ccccc1)NC(=O)[C@@H](NC(=O)CNC(=O)[C@H](CCC(N)=O)NC(=O)[C@@H](CO)NC(=O)[C@@H](N)Cc1c[nH]cn1)[C@@H](C)O)[C@@H](C)O)C(=O)N[C@@H](CC(=O)O)C(=O)N[C@@H](C)C(=O)N[C@@H](CCCNC(=N)N)C(=O)N[C@@H](C)C(=O)N[C@@H](C)C(=O)N[C@@H](CCCCNC(=O)COCCOCCNC(=O)COCCOCCNC(=O)CC[C@H](NC(=O)CCCCCCCCCCCCCCC(=O)O)C(=O)O)C(=O)N[C@@H](CC(=O)O)C(=O)N[C@@H](Cc1ccccc1)C(=O)N[C@H](C(=O)N[C@@H](CCC(N)=O)C(=O)N[C@@H](Cc1c[nH]c2ccccc12)C(=O)N[C@@H](CC(C)C)C(=O)N[C@@H](CC(C)C)C(=O)N[C@@H](CC(=O)O)C(=O)N[C@H](C(N)=O)[C@@H](C)O)C(C)C [compound 2] (H-H[dS]QGTFTSDYSKYLDARAAK([AEEA-AEEA-γGlu-C16 diacid])DFVQWLLDT-NH2; N-terminus assumed)
- EC50 (human GCGR; read-out: GCGR EC50 human): 30 pM
- hGCGR/hGLP1R (hTone) (human GCGR): 0.11
- EC50 (human GLP1R): 274 pM

Compound: CC(C)C[C@H](NC(=O)[C@H](CC(C)C)NC(=O)[C@H](Cc1c[nH]c2ccccc12)NC(=O)[C@H](CCC(N)=O)NC(=O)[C@@H](NC(=O)[C@H](Cc1ccccc1)NC(=O)[C@H](CC(=O)O)NC(=O)[C@H](CCC(N)=O)NC(=O)[C@H](C)NC(=O)[C@H](C)NC(=O)[C@H](CCCNC(=N)N)NC(=O)C(C)(C)NC(=O)[C@H](CC(=O)O)NC(=O)[C@H](CC(C)C)NC(=O)[C@H](Cc1ccc(O)cc1)NC(=O)[C@H](CCCCN)NC(=O)[C@H](CO)NC(=O)[C@H](Cc1ccc(CNC(=O)COCCOCCNC(=O)COCCOCCNC(=O)CC[C@H](NC(=O)CCCCCCCCCCCCCCC(=O)O)C(=O)O)cc1)NC(=O)[C@H](CC(=O)O)NC(=O)[C@H](CO)NC(=O)[C@@H](NC(=O)[C@H](Cc1ccccc1)NC(=O)[C@@H](NC(=O)CNC(=O)[C@H](CCC(N)=O)NC(=O)C(C)(C)NC(=O)[C@@H](N)Cc1c[nH]cn1)[C@@H](C)O)[C@@H](C)O)C(C)C)C(=O)N[C@@H](C)C(=O)N[C@H](C(=O)N[C@@H](CCCCNC(=O)CC[C@H](N)C(=O)O)C(N)=O)[C@@H](C)O [compound 11] (H-H[Aib]QGTFTSD[Phe(4-CH2NH2)]([AEEA-AEEA-γGlu-C16 diacid])SKYLD[Aib]RAAQDFVQWLLATK(γGlu)-NH2)
- EC50 (human GCGR; GCGR EC50 human): 1030 pM
- hGCGR/hGLP1R (hTone) (human GCGR): 4.15

Compound: CCCCCCCCCCCCCCCC(=O)N[C@@H](CCC(=O)NCCOCCOCC(=O)NCCOCCOCC(=O)NCc1ccc(C[C@H](NC(=O)[C@H](CC(=O)O)NC(=O)[C@H](CO)NC(=O)[C@@H](NC(=O)[C@H](Cc2ccccc2)NC(=O)[C@@H](NC(=O)CNC(=O)[C@H](CCC(N)=O)NC(=O)C(C)(C)NC(=O)[C@@H](N)Cc2c[nH]cn2)[C@@H](C)O)[C@@H](C)O)C(=O)N[C@@H](CO)C(=O)N[C@@H](CCCCN)C(=O)N[C@@H](Cc2ccc(O)cc2)C(=O)N[C@@H](CC(C)C)C(=O)N[C@@H](CC(=O)O)C(=O)N[C@@H](C)C(=O)N[C@@H](CCCNC(=N)N)C(=O)N[C@@H](C)C(=O)N[C@@H](C)C(=O)N[C@@H](CCC(N)=O)C(=O)N[C@@H](CC(=O)O)C(=O)N[C@@H](Cc2ccccc2)C(=O)N[C@H](C(=O)N[C@@H](CCC(N)=O)C(=O)N[C@@H](Cc2c[nH]c3ccccc23)C(=O)N[C@@H](CC(C)C)C(=O)N[C@@H](CCS(C)(=O)=O)C(=O)N[C@@H](CC(=O)O)C(=O)N[C@H](C(N)=O)[C@@H](C)O)C(C)C)cc1)C(=O)O [compound 13] (H-H[Aib]QGTFTSD[Phe(4-CH2NH2)]([AEEA-AEEA-γGlu-Palmitoyl])SKYLDARAAQDFVQWL[Met(O2)]DT-NH2)
- hGCGR/hGLP1R (hTone) (human GCGR): 2.19

Compound: CC(C)C[C@H](NC(=O)[C@H](Cc1ccc(O)cc1)NC(=O)[C@H](CCCCN)NC(=O)[C@H](CO)NC(=O)[C@H](Cc1ccc(O)cc1)NC(=O)[C@H](CC(=O)O)NC(=O)[C@H](CO)NC(=O)[C@@H](NC(=O)[C@H](Cc1ccccc1)NC(=O)[C@@H](NC(=O)CNC(=O)[C@H](CCC(N)=O)NC(=O)[C@@H](CO)NC(=O)[C@@H](N)Cc1c[nH]cn1)[C@@H](C)O)[C@@H](C)O)C(=O)N[C@@H](CC(=O)O)C(=O)N[C@@H](C)C(=O)N[C@@H](CCCNC(=N)N)C(=O)N[C@@H](C)C(=O)N[C@@H](C)C(=O)N[C@@H](CCC(N)=O)C(=O)N[C@@H](CCCCNC(=O)COCCOCCNC(=O)COCCOCCNC(=O)CC[C@H](NC(=O)CCCCCCCCCCCCCCCCC(=O)O)C(=O)O)C(=O)N[C@@H](Cc1ccccc1)C(=O)N[C@H](C(=O)N[C@@H](CCC(N)=O)C(=O)N[C@@H](Cc1c[nH]c2ccccc12)C(=O)N[C@@H](CC(C)C)C(=O)N[C@@H](CC(C)C)C(=O)N[C@@H](CC(=O)O)C(=O)N[C@H](C(N)=O)[C@@H](C)O)C(C)C [compound 21] (H-H[dS]QGTFTSDYSKYLDARAAQK([AEEA-AEEA-γGlu-C18 diacid])FVQWLLDT-NH2)
- hGCGR/hGLP1R (hTone) (human GCGR): 0.17

Compound: CC(C)C[C@H](NC(=O)[C@H](Cc1ccc(O)cc1)NC(=O)[C@H](CCCCN)NC(=O)[C@H](CO)NC(=O)[C@H](Cc1ccc(O)cc1)NC(=O)[C@H](CC(=O)O)NC(=O)[C@H](CO)NC(=O)[C@@H](NC(=O)[C@H](Cc1ccccc1)NC(=O)[C@@H](NC(=O)CNC(=O)[C@H](CCC(N)=O)NC(=O)C(C)(C)NC(=O)[C@@H](N)Cc1c[nH]cn1)[C@@H](C)O)[C@@H](C)O)C(=O)N[C@@H](CC(=O)O)C(=O)N[C@@H](C)C(=O)N[C@@H](CCCNC(=N)N)C(=O)N[C@@H](C)C(=O)N[C@@H](C)C(=O)N[C@@H](CCCCNC(=O)COCCOCCNC(=O)COCCOCCNC(=O)CC[C@H](NC(=O)CCCCCCCCCCCCCCCC(=O)O)C(=O)O)C(=O)N[C@@H](CC(=O)O)C(=O)N[C@@H](Cc1ccccc1)C(=O)N[C@H](C(=O)N[C@@H](CCC(N)=O)C(=O)N[C@@H](Cc1c[nH]c2ccccc12)C(=O)N[C@@H](CC(C)C)C(=O)N[C@@H](CCS(C)(=O)=O)C(=O)N[C@@H](CC(=O)O)C(=O)N[C@H](C(N)=O)[C@@H](C)O)C(C)C [compound 47] (H-H[Aib]QGTFTSDYSKYLDARAAK([AEEA-AEEA-γGlu-C17 diacid])DFVQWL[Met(O2)]DT-NH2)
- hGCGR/hGLP1R (hTone) (human GCGR): 1.30

Compound: CC(C)C[C@H](NC(=O)[C@H](Cc1ccc(O)cc1)NC(=O)[C@H](CCCCN)NC(=O)[C@H](CO)NC(=O)[C@H](Cc1ccc(O)cc1)NC(=O)[C@H](CC(=O)O)NC(=O)[C@H](CO)NC(=O)[C@@H](NC(=O)[C@H](Cc1ccccc1)NC(=O)[C@@H](NC(=O)CNC(=O)[C@H](CCC(N)=O)NC(=O)C(C)(C)NC(=O)[C@@H](N)Cc1c[nH]cn1)[C@@H](C)O)[C@@H](C)O)C(=O)N[C@@H](CC(=O)O)C(=O)N[C@@H](C)C(=O)N[C@@H](CCCNC(=N)N)C(=O)N[C@@H](C)C(=O)N[C@@H](C)C(=O)N[C@@H](CCCCNC(=O)COCCOCCNC(=O)COCCOCCNC(=O)CC[C@H](NC(=O)CCCCCCCCCCCCCCC(=O)O)C(=O)O)C(=O)N[C@@H](CC(=O)O)C(=O)N[C@@H](Cc1ccccc1)C(=O)N[C@H](C(=O)N[C@@H](CCC(N)=O)C(=O)N[C@@](C)(Cc1c[nH]c2ccccc12)C(=O)N[C@@H](CC(C)C)C(=O)N[C@@H](CCS(C)(=O)=O)C(=O)N[C@@H](CC(=O)O)C(=O)N[C@H](C(N)=O)[C@@H](C)O)C(C)C [compound 78] (H-H[Aib]QGTFTSDYSKYLDARAAK([AEEA-AEEA-γGlu-C16 diacid])DFVQ[αMeW]L[Met(O2)]DT-NH2)
- hGCGR/hGLP1R (hTone) (human GCGR): 3
